Like-named read-outs stand apart in the source and are kept apart here.
Assays:
[1] = Absorbance of free fluorogens; format: physicochemical; conditions: for x band abs max (nm) / y band abs max (nm) / λAbs (nm) (Fluorogen): free fluorogen; for ε (10^4 M^−1cm^−1): second value in parentheses not explained
dL5 [2] = assay: Fluorescence excitation/emission of fluorogen bound to dL5; format: physicochemical; conditions: for λem (nm) / λex (nm): FAP-fluorogen complex; for +dL5 fluor ex (nm): main value
dL5 [3] = assay: KD measurement of fluorogen-dL5; conditions: fluorogen binding to dL5
Procedure: (§1) FIGS. 7A-7C: FIG. 7A) KD measurement of MG-dL5 and MG2I-dL5, FIG. 7B) absorption spectra of 1 μM MG2I and MG2I with 5 μM dL5 (shorter wavelength absorption peak), FIG. 7C): fluorescence quantum yield measurement of MG2I-dL5 (squares) using Cy5 as standard (circles).
The iodination effect produces a 22 nm bathochromic shift of the x band of free MG while maintaining the FAP-fluorogen interactions. The iodination also renders the excitation maximum of MG2I-dL5 to 666 nm (compare to MG-dL5 at 633 nm), into the near infrared range (Table 1). FIGS. 7A-7C depict (FIG. 7A) KD measurement of MG-dL5 and MG2I-dL5, (FIG. 7B) absorption spectra of 1 μM MG2I and MG2I with 5 μM dL5 (shorter wavelength absorption peak), and (FIG. 7C) fluorescence quantum yield measurement of MG2I-dL5 (squares) using Cy5 as standard (circles).

dL5 [4] = assay: Fluorescence quantum yield using Cy5 as standard; format: physicochemical; conditions: fluorescence quantum yield of FAP-fluorogen, PBS7.4
Procedure: as §1
The 3, 5-diiodo-4-hydroxybenzaldehyde, anthracene-9, 10-dipropionic acid disodium salt ADPA, were purchased from VWR international and Sigma-Aldrich, tetrasulfonated aluminum phthalocyanine AlPcS4 from frontier scientific, PEG-catalase, PEG-SOD, hoechst dye 33342, live/dead cell viability/cytotoxicity kit L-3224 and dihydroethidium (hydroethidine) D11347 were from Molecular Probes. Basic media was from Invitrogen. H NMR and C NMR data are recorded from Bruker Avance™ 300 MHz and 500 MHz. Mass spectra are obtained from Thermo-Fisher LCQ ESI/APCI Ion Trap. Final products are purified by silica, neutral alumina and reverse-phase chromatography, purity were tested by UPLC. Raw absorbance values of respective free dyes and dye-FAP complex were measured on a PerkinElmer Lambda45 spectrophotometer. Fluorogenic enhancement was measured in 96 well microplates on a Tecan Safire2 reader. Quantum yields were determined by comparing integrated spectra of MG2I-dL5 complexes with Cy5 in PBS7.4 on a Quantamaster monochromator fluorimeter (Photon Technology International).

[5] = Singlet oxygen quantum yield by ADPA bleaching, AlPcS4 standard; format: physicochemical; conditions: singlet oxygen quantum yield of FAP-fluorogen
Procedure: Determination of singlet oxygen quantum yield: PBS 7.4 solution contains 0.1 mM ADPA and optically matched samples are illuminated from a 660 nm LED source, at different time point, its fluorescence decrease at 374/402 nm was recorded, the data was then fitted into a linear plot, the ψΔ was then calculated from the slopes using the equation below.
To test the two-component FAP photosensitizer ability to generate singlet oxygen, anthracene-9, 10-dipropionic acid (ADPA), a commonly used singlet oxygen scavenger, was used. This was done by monitoring the fluorescence disappearance of ADPA at 374/402 nm. Aluminum phthalocyanine tetrasulfonate (AlPcS4) was used as the standard for the measurement of ^1O2 generation (ψΔ=0.34). Optically matched solutions of MG2I-dL5 and AlPcS4 at 660 nm are compared and the singlet oxygen quantum yield of the two-component FAP photosensitizer is estimated to be 0.13 (FIG. 8). […] This confirmed the specific generation of singlet oxygen from the complex. Importantly, both the fluorescent quantum yield and the singlet oxygen quantum yield of free dyes are not detectable under normal excitation conditions, due to the very short excited state lifetime (<1 […]). […] Moreover, with near infrared excitation, this genetically encoded complex is accessible for a range of tumors and can also be used as tool for tumor visualization with fair fluorescence.

[6] = tested on: cardiac function of zebrafish larvae; assay: Photo-ablation of cardiac function of larval zebrafish; format: in vivo; conditions: 500 nM fluorogen 3 hours
Source text: MG2I-FAP induced photo-ablation of cardiac function of transgenic zebrafish. […] In both control groups, development proceeded normally. Scale Bar=1000 μm and applied to all images.
First, transgenic zebrafish lines were produced that expressed a cytoplasmic FAP-mCerulean3 (FAP-mCer3) tandem protein under control of the heart-specific myosin light chain 7 (my17, also known as cmlc2) promoter, Tg(my17: FAP-mCer3). […] FIG. 19 are photomicrographs of zebrafish larvae as described above. White denotes the presence of cytoplasmic FAP-mCerulean3 in live cells.

[7] = tested on: HEK cells transfected to express FAP
Procedure: Dead/Live cell viability assay: 400 nM dye (MG/MG-2I) was pre-complex with cells for 30 mins. After illumination, the buffer was replaced with 2 μM calcein AM and 4 μM EthD-1 working solution. After 30 min incubation at room temperature, the two-color fluorescence cell viability test was conducted with the cells.
Cell killing experiment and cell death count: MG/MG2I was added to the cells 30 minutes before illumination (for A431 and SKBR3 cells, affibody conjugated FAP was added 1 hour prior to illumination). Microscope and light box are used as illumination source, different light dose are achieved by changing of light intensity or illumination time. For death cell counting, the medium was replaced with PBS containing 1 uM propidium iodide and 8 uM Hoechst right after illumination. After 30 min incubation, cells were counted and the death cell ratio is determined by the ratio of PI to Hoechst.
The light induced cytotoxicity of two-component FAP photosensitizer on HEK cells, which were transfected to express FAP on cell surface, was tested. 400 nM MG2I/MG was added to the cell medium 30 minutes prior to illumination; 1 minute of continuous red light illumination from a confocal microscope was applied to cells (40× objective, 640 nm excitation, 0.76 W/cm^2).
The cause of MG2I-dL5 induced cell cytotoxicity was further delineated by adding different ROS quenchers to the solutions.

[8] = Recombinant ZEGFR:1907/FAPdL5** probes binding to malachite green; conditions: for Kd / kon (*10^6M^−1S^−1): binding to malachite green; for Em (nm) / Ex (nm): probe with MG
Procedure: N and C-terminal fusions were evaluated, as well as a single FAP flanked by two affibodies for their properties to bind and activate MG-fluorogens as well as their binding to target receptors on cultured cells.
Characterization of recombinant probes affibody ZEGFR:1907 (A) and FAPdL5** (F) binding to malachite green.

[9] = tested on: cell surface EGFR (A431 cells); assay: Cell surface EGFR labeling by ZEGFR:1907 fusion probes on A431 cells; format: binding, human
Procedure: The labeling of cell surface EGFR by ZEGFR:1907 fusion probes was tested with A431 cells, a cell line that expressed EGFR at high levels, ˜2000000/cell. […] By equilibrium binding fluorescence, the cell surface dissociation constant was estimated to be 122±16 nM for AF, 101±17 nM for FA and 37±6 nM for AFA.

[10] = standard for 1O2 generation; cited from earlier work
wild-type HEK cells = format: cell-based
Procedure: (§2) FAP-conjugated HER1 affibody was used to target EGFR over-expressing tumor cells A431 in cell cultures mixed with wild-type HEK cells. 250 nM affiFAP was first added to label A431 cells, followed by 250 nM MG2I/MG. […] It is shown that the tumor cells need to be targeted first by the HER1-dL5 affibody, and become accessible to photosentisization only after MG2I is added and bound to the affiFAP. […] Thus, by controlling the specific generation of singlet oxygen on the tumor site, we can eliminate the nonspecific damage to normal cells. […] This improvement to the current state-of-the-art photodynamic therapy will be of great utility, for example with the methods and modularity described herein.

[11] = tested on: EGFR over-expressing tumor cells A431; assay: Selective cancer cell killing, A431 mixed with wild-type HEK; format: cell-based; conditions: 250 nM affiFAP (FAP-conjugated HER1 affibody) then 250 nM dye
Procedure: AffiFAP/FAP was added first and allow cell targeting for 30 minutes, MG2I/MG-ester was then added and incubated for another 30 minutes (No washing is needed in the process). After 1 min illumination (60× objective, 2.43 W/cm^2), Dead/Live working solution was used to replace the cell culture medium. Two-color viability fluorescence assay was performed after 1 hr staining
as §2

SKBR3 cancer cells = assay: Selective killing of SKBR3 cancer cells; format: cell-based; conditions: 100 nM HER2 conjugated dL5 then 100 nM MG2I
Procedure: 100 nM HER2 conjugated dL5 was first added to the cells following by 100 nM MG2I.
as §2

cells = assay: Toxicity of free MG2I to cells; format: cell-based
[12] = transgenic Tg(my17: FAP-mCer3), 48 hpf, 12 minutes 659 nm 242 mW/cm^2

With `CCOC(=O)CCCOc1ccc(C(=C2C=CC(=[N+](C)C)C=C2)c2ccc(N(C)C)cc2)cc1` [MG, reference compound] the “x band abs max (nm)” value [1] was 606 nm, the “y band abs max (nm)” value [1] was 466 nm and the “λAbs (nm) (Fluorogen)” value [1] was 606 nm. For the same molecule, the “ε (10^4 M^−1cm^−1)” value [1] was 10.3(9.18) 10^4 M^−1cm^−1, the “λem (nm)” value (dL5 [2]) was 668 nm and the “λex (nm)” value (dL5 [2]) was 633 nm. For the same molecule, the “+dL5 fluor em (nm)” value (dL5 [2]; bound to dL5) was 668 nm, the “+dL5 fluor ex (nm)” value (dL5 [2]; bound to dL5) was 636 nm and the “+dL5 fluor ex (nm), value in parentheses” value (dL5 [2]; bound to dL5, second (minor) excitation peak printed in parentheses) was 482 nm. It also gave a Kd (dL5 [3]) of 5 pM, a ΦF (dL5 [4]) of 0.123 and a ΦΔ [5] of less than 0.005. For the same molecule, the “heart function immediately after illumination” value (“heart function immediately” below) [6, 12] was “normal”.

For `[N-]=[N+]=[N-]` [sodium azide, reference compound], the “inhibition of MG2I-dL5 induced cytotoxicity by ROS quencher” value ([7]; concentrations higher than 10 mM) was “totally inhibited”.

In the case of “AF: fusion of affibody ZEGFR:1907 (A) and FAPdL5** (F)”, the Kd [8] is reported as 430 ± 120 pM, the “kon (*10^6M^−1S^−1)” value [8] is reported as 1.05 *10^6M^−1S^−1 and the emission peak ([8]; in the presence of MG) is reported as 664 nm. For the same molecule, the major excitation peak ([8]; in the presence of MG) was 636 nm, the minor excitation peak ([8]; in the presence of MG) was 480 nm and the “Em (nm)” value [8] was 664 nm. The “Ex (nm)” value [8] was 634 nm and the “cell surface labeling, live-cell imaging” value [9] was “clear cell surface labeling”.

With “AFA: single FAPdL5** flanked by two ZEGFR:1907 affibodies” the Kd [8] was 530 ± 110 pM, the “kon (*10^6M^−1S^−1)” value [8] was 1.02 *10^6M^−1S^−1 and the emission peak ([8]; in the presence of MG) was 664 nm. The “fluorescence intensity compared to F and AF” value ([8]; in the presence of MG) was “enhanced fluorescence intensity”, the major excitation peak ([8]; in the presence of MG) was 636 nm and the minor excitation peak ([8]; in the presence of MG) was 480 nm. For the same molecule, the “Em (nm)” value [8] was 666 nm, the “Ex (nm)” value [8] was 634 nm and the “cell surface labeling, live-cell imaging” value [9] was “clear cell surface labeling”.

For “Aluminum phthalocyanine tetrasulfonate [AlPcS4]”, the ψΔ of standard [10] is given as 0.34.

For “Methylium, bis[4-(dimethylamino)phenyl](4-(3-carboethoxypropyl)-3,5-diiodo-phenyl)-chloride [MG2I]”, the “x band abs max (nm)” value [1] was 628 nm, the “y band abs max (nm)” value [1] was 440 nm and the “λAbs (nm) (Fluorogen)” value [1] was 628 nm. The “bathochromic shift of the x band relative to free MG” value ([1]; iodination effect) was 22 nm, the “ε (10^4 M^−1cm^−1)” value [1] was 10.1(9.02) 10^4 M^−1cm^−1 and the “λem (nm)” value (dL5 [2]) was 693 nm. The “λex (nm)” value (dL5 [2]) was 666 nm, the “+dL5 fluor em (nm)” value (dL5 [2]; bound to dL5) was 693 nm and the “+dL5 fluor ex (nm)” value (dL5 [2]; bound to dL5) was 666 nm. For the same molecule, the Kd (dL5 [3]) was 73 pM, the ΦF (dL5 [4]) was 0.037 and the ΦΔ [5] was 0.13. For the same molecule, the light induced cytotoxicity (wild-type HEK cells) was “no observed light-induced cytotoxicity”, the “killing of A431 cells upon illumination” value [11] was “only the EGFR1-expressing tumor cells were killed” and the “killing of SKBR3 cells” value (SKBR3 cancer cells) was “selective killing”. For the same molecule, the “heart function immediately” value [6, 12] was “no sign of heart beat or blood circulation”, the “heart function immediately” value ([6]; wild-type zebrafish, 12 minutes 659 nm) was “normal” and the toxicity to cells (cells) was “no toxicity to cells”.

In the case of “affibody: affibody ZEGFR:1907 alone (SEQ ID NO: 18)”, the “fluorescence activation or fluorogen binding by affibody alone” value [8] is reported as “No detectable fluorescence activation or fluorogen binding”.

B1: catalase: ROS quencher enzyme (protein, UniProt P00432 2-527, looked up)
Catalase: ADNRDPASDQMKHWKEQRAAQKPDVLTTGGGNPVGDKLNSLTVGPRGPLLVQDVVFTDEMAHFDRERIPERVVHAKGAGAFGYFEVTHDITRYSKAKVFEHIGKRTPIAVRFSTVAGESGSADTVRDPRGFAVKFYTEDGNWDLVGNNTPIFFIRDALLFPSFIHSQKRNPQTHLKDPDMVWDFWSLRPESLHQVSFLFSDRGIPDGHRHMNGYGSHTFKLVNANGEAVYCKFHYKTDQGIKNLSVEDAARLAHEDPDYGLRDLFNAIATGNYPSWTLYIQVMTFSEAEIFPFNPFDLTKVWPHGDYPLIPVGKLVLNRNPVNYFAEVEQLAFDPSNMPPGIEPSPDKMLQGRLFAYPDTHRHRLGPNYLQIPVNCPYRARVANYQRDGPMCMMDNQGGAPNYYPNSFSAPEHQPSALEHRTHFSGDVQRFNSANDDNVTQVRTFYLKVLNEEQRKRLCENIAGHLKDAQLFIQKKAVKNFSDVHPEYGSRIQALLDKYNEEKPKNAVHTYVQHGSHLSAREKANL
modifications: PEG
With B1 the “inhibition of MG2I-dL5 induced cytotoxicity by ROS quencher” value ([7]; up to 1000 U/mL) was “very little effect in rescuing cell death”.

Source: US10946098B2, “Activatable two-component photosensitizers” (Carnegie Mellon University, priority 2014, dated 2021)
